Source: ChEMBL document CHEMBL5241090, “A comprehensive overview of β-carbolines and its derivatives as anticancer agents” (Eur J Med Chem, 2021)
≈ marks a conversion by molar mass, not a printed value.

How the values were obtained:
[1] = test system: MG-63; test: Cytotoxicity against human MG-63 cells; format: functional, cell-based
[2] = test system: ACHN; test: Cytotoxicity against human ACHN cells; format: functional, cell-based
[3] = test system: DU-145; test: Cytotoxicity against human DU-145 cells; format: functional, cell-based
[4] = test system: A549; test: Cytotoxicity against human A549 cells; format: functional, cell-based
[5] = test system: HeLa; test: Cytotoxicity against human HeLa cells; format: functional, cell-based
[6] = test system: MCF7; test: Cytotoxicity against human MCF7 cells; format: functional, cell-based
[7] = target: T1, Kinesin-like protein KIF11 (Homo sapiens, UniProt P52732); test: Inhibition of KSP (unknown origin)
T1 sequence (P52732 whole entry): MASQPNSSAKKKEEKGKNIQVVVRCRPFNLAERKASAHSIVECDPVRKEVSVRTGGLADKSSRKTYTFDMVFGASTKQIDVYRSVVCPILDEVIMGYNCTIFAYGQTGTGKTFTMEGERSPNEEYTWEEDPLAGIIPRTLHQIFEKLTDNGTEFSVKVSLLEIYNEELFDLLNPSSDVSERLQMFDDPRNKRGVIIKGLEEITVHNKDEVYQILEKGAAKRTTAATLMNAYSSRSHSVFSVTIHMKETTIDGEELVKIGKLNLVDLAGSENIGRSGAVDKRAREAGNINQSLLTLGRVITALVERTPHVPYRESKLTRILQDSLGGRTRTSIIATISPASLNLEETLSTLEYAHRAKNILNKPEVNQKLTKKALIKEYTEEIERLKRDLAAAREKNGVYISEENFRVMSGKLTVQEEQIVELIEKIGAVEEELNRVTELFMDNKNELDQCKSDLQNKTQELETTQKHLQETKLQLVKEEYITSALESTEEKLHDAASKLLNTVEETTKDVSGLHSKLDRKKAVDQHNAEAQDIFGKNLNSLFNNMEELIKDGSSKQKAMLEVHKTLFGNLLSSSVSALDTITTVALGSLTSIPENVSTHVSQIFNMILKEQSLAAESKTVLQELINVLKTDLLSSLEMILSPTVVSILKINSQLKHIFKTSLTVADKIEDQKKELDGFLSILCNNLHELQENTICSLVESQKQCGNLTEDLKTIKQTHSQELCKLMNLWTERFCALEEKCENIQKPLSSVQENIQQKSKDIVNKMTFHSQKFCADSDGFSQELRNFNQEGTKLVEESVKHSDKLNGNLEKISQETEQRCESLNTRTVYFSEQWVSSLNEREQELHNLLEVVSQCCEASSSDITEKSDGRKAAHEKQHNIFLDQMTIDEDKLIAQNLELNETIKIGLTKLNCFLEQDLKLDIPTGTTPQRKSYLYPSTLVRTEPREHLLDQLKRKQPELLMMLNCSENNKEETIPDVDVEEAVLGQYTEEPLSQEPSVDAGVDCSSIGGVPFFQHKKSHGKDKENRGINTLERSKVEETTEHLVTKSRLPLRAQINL

[8] = target: T2, DNA topoisomerase 1 (Homo sapiens, UniProt P11387); test: Inhibition of Topoisomerase 1 (unknown origin)
T2 sequence (P11387 whole entry): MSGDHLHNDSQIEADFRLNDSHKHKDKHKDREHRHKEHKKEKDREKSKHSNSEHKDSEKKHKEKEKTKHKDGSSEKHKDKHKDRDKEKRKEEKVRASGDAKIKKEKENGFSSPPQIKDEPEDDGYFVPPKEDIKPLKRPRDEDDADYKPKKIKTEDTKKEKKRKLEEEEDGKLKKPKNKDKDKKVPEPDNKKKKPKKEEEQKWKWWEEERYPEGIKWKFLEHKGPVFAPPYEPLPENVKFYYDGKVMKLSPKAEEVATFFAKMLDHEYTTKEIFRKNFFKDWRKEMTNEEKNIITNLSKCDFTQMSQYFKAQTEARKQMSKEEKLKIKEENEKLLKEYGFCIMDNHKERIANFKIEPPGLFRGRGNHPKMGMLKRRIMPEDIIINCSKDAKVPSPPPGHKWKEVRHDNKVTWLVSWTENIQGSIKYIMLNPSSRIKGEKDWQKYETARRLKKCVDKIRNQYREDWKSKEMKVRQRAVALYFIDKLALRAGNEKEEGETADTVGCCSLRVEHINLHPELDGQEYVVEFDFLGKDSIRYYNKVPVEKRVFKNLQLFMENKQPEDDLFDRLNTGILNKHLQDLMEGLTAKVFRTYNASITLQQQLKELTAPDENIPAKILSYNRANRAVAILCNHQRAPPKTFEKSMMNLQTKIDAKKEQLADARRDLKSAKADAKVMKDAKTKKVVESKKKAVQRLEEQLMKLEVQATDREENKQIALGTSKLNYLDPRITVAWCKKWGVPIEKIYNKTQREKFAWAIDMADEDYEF

[9] = test system: MCF7; test: Cytotoxicity against human MCF7 cells by MTT assay; format: functional, cell-based
[10] = test system: HT-29; test: Growth inhibition of human HT-29 cells incubated for 72 hrs by SRB assay; format: functional, cell-based; conditions: HT-29, 72 h
[11] = test system: MDA-MB-231; test: Growth inhibition of human MDA-MB-231 cells incubated for 72 hrs by SRB assay; format: functional, cell-based; conditions: MDA-MB-231, 72 h
[12] = test system: A549; test: Growth inhibition of human A549 cells incubated for 72 hrs by SRB assay; format: functional, cell-based; conditions: A549, 72 h
[13] = test system: Keratinocyte; test: Cytotoxicity against guinea pig ear keratinocytes using [3H]thymidine by liquid scintillation counting analysis; format: functional, cell-based; conditions: Cavia porcellus
[14] = test system: SGC-7901; test: Cytotoxicity against human SGC-7901 cells assessed as reduction in optical density by MTT assay; format: functional, cell-based
[15] = Cytotoxicity against human 95-D cells assessed as reduction in optical density by MTT assay; format: functional, cell-based
[16] = test system: HepG2; test: Cytotoxicity against human HepG2 cells assessed as reduction in optical density by MTT assay; format: functional, cell-based
[17] = test system: A549; test: Cytotoxicity against human A549 cells measured after 48 hrs by MTT assay; format: functional, cell-based; conditions: A549, 48 h
[18] = test system: SGC-7901; test: Cytotoxicity against human SGC-7901 cells measured after 48 hrs by MTT assay; format: functional, cell-based; conditions: SGC-7901, 48 h
[19] = test system: HeLa; test: Cytotoxicity against human HeLa cells measured after 48 hrs by MTT assay; format: functional, cell-based
[20] = test system: SMMC-7721; test: Cytotoxicity against human SMMC-7721 cells measured after 48 hrs by MTT assay; format: functional, cell-based; conditions: SMMC-7721, 48 h
[21] = test system: MCF7; test: Cytotoxicity against human MCF7 cells measured after 24 hrs by MTT assay; format: functional, cell-based; conditions: MCF7, 24 h
[22] = test system: A2780; test: Cytotoxicity against human A2780 cells measured after 24 hrs by MTT assay; format: functional, cell-based; conditions: A2780, 24 h
[23] = test system: COLO 205; test: Cytotoxicity against human COLO 205 cells measured after 24 hrs by MTT assay; format: functional, cell-based; conditions: COLO 205, 24 h
[24] = test system: A549; test: Cytotoxicity against human A549 cells measured after 24 hrs by MTT assay; format: functional, cell-based; conditions: A549, 24 h
[25] = test system: OVCAR-3; test: Cytotoxicity against human OVCAR-3 cells; format: functional, cell-based
[26] = test system: HT-1080; test: Cytotoxicity against human HT-1080 cells; format: functional, cell-based
[27] = test system: HepG2; test: Cytotoxicity against human HepG2 cells; format: functional, cell-based; conditions: read-out: TC50 (the source's name)
[28] = test system: TERT-RPE1; test: Cytotoxicity against human TERT-RPE1 cells; format: functional, cell-based; conditions: RPE-1
[29] = test system: HUVEC; test: Cytotoxicity against human HUVEC cells; format: functional, cell-based
[30] = test system: LNCaP; test: Cytotoxicity against human LNCaP cells; format: functional, cell-based
[31] = Cytotoxicity against human Lu1 cells; format: functional, cell-based
[32] = test system: Col2; test: Cytotoxicity against human Col2 cells; format: functional, cell-based

O=C(c1cc2c([nH]c3ccccc32)c(-c2ccccc2)n1)N1CCN(S(=O)(=O)c2ccccc2)CC1
IC50 [1]: 590 nM

O=C(/C=C/c1cc2c([nH]c3ccccc32)c(-c2ccc(C(F)(F)F)cc2)n1)c1ccco1
IC50 [2]: 1890 nM
IC50 [3]: 1890 nM
IC50 [4]: 1890 nM
IC50 [5]: 1890 nM
IC50 [6]: 1890 nM

O=C(NNC(=S)Nc1ccc(Br)cc1)c1cc2c([nH]c3ccccc32)c(-c2cccc(O)c2)n1
IC50 [7]: 13400 nM
IC50 [8]: 5800 nM

CSc1nnc(-c2cc3c([nH]c4ccccc43)c(-c3cccc(O)c3)n2)o1
IC50 [7]: 8730 nM
IC50 [8]: 7800 nM

COc1ccc2c3ccnc(C)c3n(CC3CC(c4ccccc4)=NO3)c2c1 (centres undefined)
IC50 [9]: 800 nM

O=C(O)c1c(-c2c[nH]c3cc(O)ccc23)ncc2[nH]c3ccc(O)cc3c12
IC50 [10]: 42 µg/mL (≈ 117 µM)
IC50 [11]: 25 µg/mL (≈ 69.6 µM)
IC50 [12]: 30 µg/mL (≈ 83.5 µM)

COc1cnc2ccc(=O)n3c4ccccc4c1c23
IC50 [13]: 5.76 µg/mL (≈ 23 µM)

COc1ccc2c3ccnc(C)c3n(CCCc3ccccc3)c2c1
IC50 [14]: < 36000 nM
IC50 [15]: 36000 nM
IC50 [16]: < 36000 nM

CC(=O)N1N=C(c2ccco2)CC1c1cc2c([nH]c3ccccc32)c(-c2ccc(C(F)(F)F)cc2)n1 (centres undefined)
IC50 [2]: 1940 nM
IC50 [3]: 1940 nM
IC50 [4]: 1940 nM
IC50 [5]: 1940 nM
IC50 [6]: 1940 nM

O=C(OCCCCCOC(=O)c1cc2c3ccccc3n(Cc3ccccc3F)c2cn1)c1cc2c3ccccc3n(Cc3ccccc3F)c2cn1
IC50 [17]: 5610 nM
IC50 [18]: 5610 nM
IC50 [19]: 5610 nM
IC50 [20]: 5610 nM

COc1ccc(C(=O)n2c3ccccc3c3ccnc(-c4cc(-c5ccc(-c6nc7ccccc7s6)cc5)no4)c32)c(OC)c1OC
IC50 [21]: 100 nM
IC50 [22]: 190 nM
IC50 [23]: 640 nM
IC50 [24]: 140 nM

CCn1c2cc(OC)ccc2c2ccnc(C)c21
IC50 [14]: < 36000 nM
IC50 [15]: 36000 nM
IC50 [16]: < 36000 nM

Cc1ccc(-n2c(-c3cc4c([nH]c5ccccc54)c(-c4cccc(O)c4)n3)n[nH]c2=S)cc1
IC50 [7]: 8910 nM
IC50 [8]: 2500 nM

NC(=O)c1c(-c2c[nH]c3cc(O)ccc23)ncc2[nH]c3ccc(O)cc3c12
IC50 [10]: 45 µg/mL (≈ 126 µM)
IC50 [11]: 42 µg/mL (≈ 117 µM)
IC50 [12]: 35 µg/mL (≈ 97.7 µM)

CNCC(O)c1ccc(O)c(C2(O)c3ccccc3-[n+]3ccc4c([nH]c5ccccc54)c32)c1 (centres undefined)
IC50 [25]: 27 µg/mL
IC50 [4]: 27 µg/mL
IC50 [6]: 27 µg/mL

COc1ccc2c3ccnc4c(OC)cc(=O)n(c2c1)c43
IC50 [26]: 5000 nM

O=C(O)[C@H](O)Cc1nccc2c1[nH]c1ccccc12
CC50 [27]: 39000 nM

O=c1cc2c3ccccc3n3c(=O)ccc([nH]1)c23
IC50 [28]: 506 nM
IC50 [29]: 506 nM
IC50 [30]: 506 nM
IC50 [31]: 506 nM
IC50 [32]: 506 nM
